Patent US20120220564A1, “SELECTIVE CALCIUM CHANNEL MODULATORS” (Zalicus Pharmaceuticals Ltd., priority 2009, published 2012)

How the values were obtained:
α1H (CaV 3.2) = biological target: T1, α1H (CaV 3.2) (Homo sapiens, UniProt O95180); experiment: T-type calcium channel block, whole cell patch clamp; assay type: cell-based; details: HEK cells, mainly non-inactivated protocol; values above 10,000 nM represented as 10000
T1 construct: expressed in transfected cells; host or cells: HEK 293
Description: (§1) T-type calcium channel blocking activity was assayed in human embryonic kidney cells, HEK 293 (Invitrogen), stably transfected with the T-type calcium channel subunits. Briefly, cells were cultured in Dulbecco's modified eagle medium (DMEM) supplemented with 10% fetal bovine serum, 200 U/ml penicillin, and 0.2 mg/mL streptomycin at 37° C. with 5% CO2. At 85% confluency, cells were split with 0.25% trypsin/1 mM EDTA and plated at 10% confluency on glass coverslips. At 12 hours, the medium was replaced, and the cells stably transfected using a standard calcium phosphate protocol and the appropriate calcium channel cDNA's. Fresh DMEM was supplied, and the cells transferred to 28° C./5% CO2. Cells were incubated for 1 to 2 days prior to whole cell recording.
(§2) Standard patch-clamp techniques were employed to identify blockers of T-type currents. Briefly, previously described HEK cell lines stably expressing human α1G, α1H and α1I T-type channels were used for all the recordings (passage #: 4-20, 37° C., 5% CO2). Whole cell patch clamp experiments were performed using an Axopatch 200B amplifier (Axon Instruments, Burlingame, Calif.) linked to a personal computer equipped with pCLAMP software. Data were analyzed using Clampfit (Axon Instruments) and SigmaPlot 4.0 (Jandel Scientific). To obtain T-type currents, plastic dishes containing semi-confluent cells were positioned on the stage of a ZEISS AXIOVERT S100 microscope after replacing the culture medium with external solution (Table 2). Whole-cell patches were obtained using pipettes (borosilicate glass with filament, O.D.: 1.5 mm, I.D.: 0.86 mm, 10 cm length), fabricated on a SUTTER P-97 puller with resistance values of ˜5 MΩ (Table 3).
(§3) T-type currents were reliably obtained by using two voltage protocols:
(§4) In the non-inactivating protocol, the holding potential is set at −110 mV and with a pre-pulse at −100 mV for 1 second prior to the test pulse at −40 mV for 50 ms. In the inactivation protocol, the pre-pulse is at approximately −85 mV for 1 second, which inactivates about 15% of the T-type channels (Scheme 1).
(§5) Test compounds were dissolved in external solution, 0.1-0.01% DMSO. After ˜10 minutes rest, they were applied by gravity close to the cell using a WPI microfil tubing. The “non-inactivated” pre-pulse was used to examine the resting block of a compound. The “inactivated” protocol was employed to study voltage-dependent block. However, the initial data shown below were mainly obtained using the non-inactivated protocol only. IC50 values are shown for various compounds of the invention in Table 4. […] In Table 4, empty cells indicate that inhibition by the compound was not detected.

α1G (CaV 3.1) = biological target: T2, α1G (CaV 3.1) (Homo sapiens, UniProt O43497); experiment: as above; assay type: cell-based; details: HEK cells, mainly non-inactivated protocol; values above 10,000 nM represented as 10000
T2 construct: expressed in transfected cells; host or cells: HEK 293
Description: as §1, §2, §3, §4, §5

T2 sequence (O43497 whole entry): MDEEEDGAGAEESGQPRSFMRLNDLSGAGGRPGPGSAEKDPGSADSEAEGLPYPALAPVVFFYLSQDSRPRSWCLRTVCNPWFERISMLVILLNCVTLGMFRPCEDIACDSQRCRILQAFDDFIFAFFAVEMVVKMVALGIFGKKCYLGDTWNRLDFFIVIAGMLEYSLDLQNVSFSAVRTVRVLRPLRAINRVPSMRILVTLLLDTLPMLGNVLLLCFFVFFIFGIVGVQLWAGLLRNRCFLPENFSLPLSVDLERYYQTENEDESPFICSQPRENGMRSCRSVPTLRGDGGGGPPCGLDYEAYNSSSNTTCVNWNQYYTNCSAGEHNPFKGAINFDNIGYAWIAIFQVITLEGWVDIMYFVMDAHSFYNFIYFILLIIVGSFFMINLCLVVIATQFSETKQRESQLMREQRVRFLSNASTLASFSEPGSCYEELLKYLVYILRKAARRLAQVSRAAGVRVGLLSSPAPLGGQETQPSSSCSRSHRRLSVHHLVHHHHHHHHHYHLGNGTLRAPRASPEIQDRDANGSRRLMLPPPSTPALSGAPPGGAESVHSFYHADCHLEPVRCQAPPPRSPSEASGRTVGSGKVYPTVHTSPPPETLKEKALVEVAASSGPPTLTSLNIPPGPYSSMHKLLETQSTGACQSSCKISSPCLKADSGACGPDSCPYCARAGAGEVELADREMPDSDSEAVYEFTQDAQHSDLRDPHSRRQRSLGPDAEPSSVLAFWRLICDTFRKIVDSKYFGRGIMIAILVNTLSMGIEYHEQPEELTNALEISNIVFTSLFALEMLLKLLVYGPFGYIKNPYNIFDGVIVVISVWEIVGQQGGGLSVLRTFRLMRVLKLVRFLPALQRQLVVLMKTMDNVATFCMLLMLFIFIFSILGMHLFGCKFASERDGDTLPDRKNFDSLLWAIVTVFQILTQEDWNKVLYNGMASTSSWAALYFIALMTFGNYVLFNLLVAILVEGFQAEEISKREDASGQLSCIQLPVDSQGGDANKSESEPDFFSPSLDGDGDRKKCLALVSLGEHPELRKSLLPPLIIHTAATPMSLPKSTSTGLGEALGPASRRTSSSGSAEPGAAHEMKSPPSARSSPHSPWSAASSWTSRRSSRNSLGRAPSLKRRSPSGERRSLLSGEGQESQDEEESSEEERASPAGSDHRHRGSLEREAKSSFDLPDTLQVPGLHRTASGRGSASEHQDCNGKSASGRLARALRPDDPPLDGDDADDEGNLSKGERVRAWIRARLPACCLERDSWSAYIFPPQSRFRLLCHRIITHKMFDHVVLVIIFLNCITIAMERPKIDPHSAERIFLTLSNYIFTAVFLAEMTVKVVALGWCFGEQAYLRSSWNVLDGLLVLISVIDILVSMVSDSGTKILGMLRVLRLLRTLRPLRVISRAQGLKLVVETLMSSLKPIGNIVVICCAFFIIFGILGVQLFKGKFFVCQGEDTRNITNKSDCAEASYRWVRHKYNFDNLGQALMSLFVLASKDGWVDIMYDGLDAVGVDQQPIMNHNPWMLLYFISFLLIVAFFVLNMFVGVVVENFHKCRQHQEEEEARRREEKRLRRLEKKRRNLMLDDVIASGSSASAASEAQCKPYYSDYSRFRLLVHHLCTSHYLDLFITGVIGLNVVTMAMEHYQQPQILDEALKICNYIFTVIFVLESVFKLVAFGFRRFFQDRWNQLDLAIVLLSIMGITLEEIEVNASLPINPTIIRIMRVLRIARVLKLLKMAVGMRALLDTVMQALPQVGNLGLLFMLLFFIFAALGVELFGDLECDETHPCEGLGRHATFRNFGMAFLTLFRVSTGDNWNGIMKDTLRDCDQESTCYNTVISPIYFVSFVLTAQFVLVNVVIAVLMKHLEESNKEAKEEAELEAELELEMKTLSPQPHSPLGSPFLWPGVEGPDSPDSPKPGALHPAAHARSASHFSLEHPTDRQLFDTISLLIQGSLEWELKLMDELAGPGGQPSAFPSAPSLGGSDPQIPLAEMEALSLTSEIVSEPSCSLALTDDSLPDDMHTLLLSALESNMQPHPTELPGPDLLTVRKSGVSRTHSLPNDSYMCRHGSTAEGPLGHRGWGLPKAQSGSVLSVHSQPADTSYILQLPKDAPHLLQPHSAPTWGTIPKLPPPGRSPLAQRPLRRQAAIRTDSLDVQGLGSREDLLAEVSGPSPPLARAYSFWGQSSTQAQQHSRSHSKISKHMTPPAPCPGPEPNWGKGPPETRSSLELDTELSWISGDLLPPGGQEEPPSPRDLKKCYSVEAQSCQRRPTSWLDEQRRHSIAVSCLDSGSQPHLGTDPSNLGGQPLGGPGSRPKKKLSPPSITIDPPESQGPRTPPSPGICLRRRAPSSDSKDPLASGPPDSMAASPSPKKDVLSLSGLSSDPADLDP
T1 sequence (O95180 whole entry): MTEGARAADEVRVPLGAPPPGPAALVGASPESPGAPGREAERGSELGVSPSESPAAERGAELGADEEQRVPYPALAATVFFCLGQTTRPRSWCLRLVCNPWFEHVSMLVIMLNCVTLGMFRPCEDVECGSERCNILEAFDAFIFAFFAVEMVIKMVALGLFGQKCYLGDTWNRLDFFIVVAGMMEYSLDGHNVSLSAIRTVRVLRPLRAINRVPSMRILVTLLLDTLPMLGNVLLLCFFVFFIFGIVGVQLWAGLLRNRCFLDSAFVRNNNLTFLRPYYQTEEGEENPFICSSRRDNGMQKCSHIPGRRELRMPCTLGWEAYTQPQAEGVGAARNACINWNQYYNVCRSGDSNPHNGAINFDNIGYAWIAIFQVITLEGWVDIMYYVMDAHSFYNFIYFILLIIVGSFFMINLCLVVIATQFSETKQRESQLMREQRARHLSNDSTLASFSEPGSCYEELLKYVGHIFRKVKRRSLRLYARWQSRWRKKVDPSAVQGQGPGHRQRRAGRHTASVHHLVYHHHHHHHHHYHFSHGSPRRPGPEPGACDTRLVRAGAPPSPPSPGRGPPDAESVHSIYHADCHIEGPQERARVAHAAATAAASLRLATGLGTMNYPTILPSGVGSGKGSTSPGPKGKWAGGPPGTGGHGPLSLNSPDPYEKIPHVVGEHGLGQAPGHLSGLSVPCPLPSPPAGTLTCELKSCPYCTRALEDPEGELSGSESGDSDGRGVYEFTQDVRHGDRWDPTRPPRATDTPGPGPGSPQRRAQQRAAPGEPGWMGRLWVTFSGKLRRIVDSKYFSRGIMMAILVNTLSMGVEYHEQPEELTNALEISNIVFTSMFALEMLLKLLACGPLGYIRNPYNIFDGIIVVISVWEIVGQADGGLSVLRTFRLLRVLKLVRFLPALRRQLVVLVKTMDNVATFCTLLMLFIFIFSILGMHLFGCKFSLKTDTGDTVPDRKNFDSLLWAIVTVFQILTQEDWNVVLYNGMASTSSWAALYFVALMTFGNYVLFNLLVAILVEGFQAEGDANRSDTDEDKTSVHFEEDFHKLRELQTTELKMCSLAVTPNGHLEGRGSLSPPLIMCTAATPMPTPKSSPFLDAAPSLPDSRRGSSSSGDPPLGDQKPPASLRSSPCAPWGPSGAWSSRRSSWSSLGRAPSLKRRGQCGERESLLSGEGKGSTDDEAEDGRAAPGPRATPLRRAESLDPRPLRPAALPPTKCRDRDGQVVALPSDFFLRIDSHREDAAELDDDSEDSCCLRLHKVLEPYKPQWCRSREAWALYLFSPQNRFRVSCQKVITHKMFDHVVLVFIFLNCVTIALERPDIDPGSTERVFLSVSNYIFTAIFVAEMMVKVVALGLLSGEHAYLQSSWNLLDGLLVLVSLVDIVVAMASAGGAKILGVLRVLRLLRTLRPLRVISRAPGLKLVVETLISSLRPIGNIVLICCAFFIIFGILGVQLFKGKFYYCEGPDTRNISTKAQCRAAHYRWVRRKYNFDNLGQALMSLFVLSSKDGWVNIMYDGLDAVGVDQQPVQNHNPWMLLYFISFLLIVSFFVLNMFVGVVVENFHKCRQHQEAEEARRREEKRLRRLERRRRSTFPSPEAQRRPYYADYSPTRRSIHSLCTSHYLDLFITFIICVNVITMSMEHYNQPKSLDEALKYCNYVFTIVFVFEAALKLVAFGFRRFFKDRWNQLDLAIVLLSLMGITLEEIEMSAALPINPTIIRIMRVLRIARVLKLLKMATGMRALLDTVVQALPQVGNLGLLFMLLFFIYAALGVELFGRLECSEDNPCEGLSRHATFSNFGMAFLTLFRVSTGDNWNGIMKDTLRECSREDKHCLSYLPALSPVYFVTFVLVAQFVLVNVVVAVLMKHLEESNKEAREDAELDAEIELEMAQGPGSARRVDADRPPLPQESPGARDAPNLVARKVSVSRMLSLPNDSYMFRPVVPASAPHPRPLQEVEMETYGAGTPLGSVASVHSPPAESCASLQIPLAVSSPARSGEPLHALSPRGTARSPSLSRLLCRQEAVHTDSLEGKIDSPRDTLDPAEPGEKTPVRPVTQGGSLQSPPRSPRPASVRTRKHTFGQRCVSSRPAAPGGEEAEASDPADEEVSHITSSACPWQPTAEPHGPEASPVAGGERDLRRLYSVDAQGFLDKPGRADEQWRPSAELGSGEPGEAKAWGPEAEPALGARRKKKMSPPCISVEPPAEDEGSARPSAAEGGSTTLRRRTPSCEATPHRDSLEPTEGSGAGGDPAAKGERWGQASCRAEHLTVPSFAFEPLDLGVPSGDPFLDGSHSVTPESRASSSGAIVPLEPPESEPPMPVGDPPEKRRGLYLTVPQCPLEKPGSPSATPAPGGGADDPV

Row | SMILES | IC50 (α1H (CaV 3.2)) [µM] | IC50 (α1G (CaV 3.1)) [µM]
1 | N[C@@H]1CCCC[C@H]1C(=O)N1CCC(CNC(=O)c2cc(C(F)(F)F)cc(C(F)(F)F)c2)CC1 (racemic) [Compound 48] | 1.85 | > 10
2 | N[C@@H]1CCCC[C@H]1C(=O)N1CCC(CC(=O)Nc2cc(C(F)(F)F)cc(C(F)(F)F)c2)CC1 [Compound 6, 2-(1-((1R,2R)-2-aminocyclohexanecarbonyl)piperidin-4-yl)-N-(3,5-bis(trifluoromethyl)phenyl)acetamide] | 0.25 | > 10
3 | CC1(C(=O)N2CCC(CC(=O)Nc3cc(C(F)(F)F)cc(C(F)(F)F)c3)C2)CCCCN1 (centres unmarked) [Compound 34, N-(3,5-bis(trifluoromethyl)phenyl)-2-(1-(2-methylpiperidine-2-carbonyl)pyrrolidin-3-yl)acetamide] | 1.94 | 4.4
4 | CN1CCCCC1C(=O)N1CCC(CC(=O)Nc2cc(C(F)(F)F)cc(C(F)(F)F)c2)C1 (centres unmarked) [Compound 35, N-(3,5-bis(trifluoromethyl)phenyl)-2-(1-(1-methylpiperidine-2-carbonyl)pyrrolidin-3-yl)acetamide] | 1.95 | 6.02
5 | CN1CCCC(C(=O)N2CCC(CC(=O)Nc3cc(C(F)(F)F)cc(C(F)(F)F)c3)C2)C1 (centres unmarked) [Compound 36, N-(3,5-bis(trifluoromethyl)phenyl)-2-(1-(1-methylpiperidine-3-carbonyl)pyrrolidin-3-yl)acetamide] | 2.44 | 8.1
6 | CN1CCCCC1C(=O)N1CC(CC(=O)Nc2cc(C(F)(F)F)cc(C(F)(F)F)c2)C1 (centres unmarked) [Compound 37, N-(3,5-bis(trifluoromethyl)phenyl)-2-(1-(1-methylpiperidine-2-carbonyl)azetidin-3-yl)acetamide] | 4.39 | > 10
7 | CN1CCCC(C(=O)N2CC(CC(=O)Nc3cc(C(F)(F)F)cc(C(F)(F)F)c3)C2)C1 (centres unmarked) [Compound 38, N-(3,5-bis(trifluoromethyl)phenyl)-2-(1-(1-methylpiperidine-3-carbonyl)azetidin-3-yl)acetamide] | 8.04 | > 10
8 | CC(C)(N)CC(=O)N1CC(CC(=O)Nc2cc(C(F)(F)F)cc(C(F)(F)F)c2)C1 [Compound 43, 2-(1-(3-amino-3-methylbutanoyl)azetidin-3-yl)-N-(3,5-bis(trifluoromethyl)phenyl)acetamide] | > 10 | > 10
9 | CC(C)(N)CC(=O)N1CCC(CC(=O)Nc2cc(C(F)(F)F)cc(C(F)(F)F)c2)C1 (centres unmarked) [Compound 44, 2-(1-(3-amino-3-methylbutanoyl)pyrrolidin-3-yl)-N-(3,5-bis(trifluoromethyl)phenyl)acetamide] | 2.1 | > 10
10 | CC(C)(CN)C(=O)N1CC(CC(=O)Nc2cc(C(F)(F)F)cc(C(F)(F)F)c2)C1 [Compound 46, 2-(1-(3-amino-2,2-dimethylpropanoyl)azetidin-3-yl)-N-(3,5-bis(trifluoromethyl)phenyl)acetamide] | > 10 | > 10
11 | CC(C)(CN)C(=O)N1CCC(CC(=O)Nc2cc(C(F)(F)F)cc(C(F)(F)F)c2)C1 (centres unmarked) [Compound 47, 2-(1-(3-amino-2,2-dimethylpropanoyl)pyrrolidin-3-yl)-N-(3,5-bis(trifluoromethyl)phenyl)acetamide] | 3.37 | > 10

More lines, in order of falling IC50 (α1H (CaV 3.2)), values ahead:

Row | IC50 (α1H (CaV 3.2)) [µM] | IC50 (α1G (CaV 3.1)) [µM] | SMILES
12 | 1.21 | > 10 | O=C(CC1CN(C(=O)C2CCCCN2)C1)Nc1cc(C(F)(F)F)cc(C(F)(F)F)c1 (centres unmarked) [Compound 39, N-(3,5-bis(trifluoromethyl)phenyl)-2-(1-(piperidine-2-carbonyl)azetidin-3-yl)acetamide]
13 | 0.99 | 4.68 | NC1(C(=O)N2CCC(CC(=O)Nc3cc(C(F)(F)F)cc(C(F)(F)F)c3)CC2)CCCCC1 [Compound 9, 2-(1-(1-aminocyclohexanecarbonyl)piperidin-4-yl)-N-(3,5-bis(trifluoromethyl)phenyl)acetamide]
14 | 0.92 | > 10 | N[C@H]1CCCC[C@@H]1C(=O)N1CCC(CC(=O)Nc2ccc(Br)c(C(F)(F)F)c2)CC1 (racemic) [Compound 20, trans-2-(1-(2-aminocyclohexanecarbonyl)piperidin-4-yl)-N-(4-bromo-3-(trifluoromethyl)phenyl)acetamide]
15 | 0.85 | > 10 | N[C@H]1CCCC[C@H]1C(=O)N1CC(CC(=O)Nc2cc(C(F)(F)F)cc(C(F)(F)F)c2)C1 (racemic) [Compound 41, cis-2-(1-(2-aminocyclohexanecarbonyl)azetidin-3-yl)-N-(3,5-bis(trifluoromethyl)phenyl)acetamide]
16 | 0.83 | > 10 | N[C@@H]1CCCC[C@H]1C(=O)N1CC(CC(=O)Nc2cc(C(F)(F)F)cc(C(F)(F)F)c2)C1 (racemic) [Compound 40, trans-2-(1-(2-aminocyclohexanecarbonyl)azetidin-3-yl)-N-(3,5-bis(trifluoromethyl)phenyl)acetamide]
17 | 0.71 | 8.95 | N[C@H]1CCCC[C@H]1C(=O)N1CCC(CC(=O)Nc2cc(C(F)(F)F)cc(C(F)(F)F)c2)C1 (stereo partly drawn) [Compound 30, 2-(1-((1R,2S)-2-aminocyclohexanecarbonyl)pyrrolidin-3-yl)-N-(3,5-bis(trifluoromethyl)phenyl)acetamide]
18 | 0.63 | 5.66 | N[C@@H]1CCCC[C@H]1C(=O)N1CCC(CC(=O)Nc2cc(C(F)(F)F)cc(C(F)(F)F)c2)C1 (stereo partly drawn) [Compound 32, 2-(1-((1R,2R)-2-aminocyclohexanecarbonyl)pyrrolidin-3-yl)-N-(3,5-bis(trifluoromethyl)phenyl)acetamide]
19 | 0.57 | 7.02 | O=C(CC1CCN(C(=O)C2CCCCN2)C1)Nc1cc(C(F)(F)F)cc(C(F)(F)F)c1 (centres unmarked) [Compound 29, N-(3,5-bis(trifluoromethyl)phenyl)-2-(1-(piperidine-2-carbonyl)pyrrolidin-3-yl)acetamide]
20 | 0.57 | > 10 | CC(C)(N)CC(=O)N1CCC(CC(=O)Nc2cc(C(F)(F)F)cc(C(F)(F)F)c2)CC1 [Compound 42, 2-(1-(3-amino-3-methylbutanoyl)piperidin-4-yl)-N-(3,5-bis(trifluoromethyl)phenyl)acetamide]
21 | 0.54 | > 10 | CC(C)(CN)C(=O)N1CCC(CC(=O)Nc2cc(C(F)(F)F)cc(C(F)(F)F)c2)CC1 [Compound 45, 2-(1-(3-amino-2,2-dimethylpropanoyl)piperidin-4-yl)-N-(3,5-bis(trifluoromethyl)phenyl)acetamide]
22 | 0.51 | > 10 | CN1CCCC(C(=O)N2CCC(CC(=O)Nc3cc(C(F)(F)F)cc(C(F)(F)F)c3)CC2)C1 (centres unmarked) [Compound 1, N-(3,5-bis(trifluoromethyl)phenyl)-2-(1-(1-methylpiperidine-3-carbonyl)piperidin-4-yl)acetamide]
23 | 0.46 | 6.19 | N[C@@H]1CCCC[C@@H]1C(=O)N1CCC(CC(=O)Nc2cc(C(F)(F)F)cc(C(F)(F)F)c2)C1 (stereo partly drawn) [Compound 31, 2-(1-((1S,2R)-2-aminocyclohexanecarbonyl)pyrrolidin-3-yl)-N-(3,5-bis(trifluoromethyl)phenyl)acetamide]
24 | 0.26 | 5.29 | N[C@H]1CCCC[C@@H]1C(=O)N1CCC(CC(=O)Nc2cc(C(F)(F)F)cc(C(F)(F)F)c2)C1 (stereo partly drawn) [Compound 33, 2-(1-((1S,2S)-2-aminocyclohexanecarbonyl)pyrrolidin-3-yl)-N-(3,5-bis(trifluoromethyl)phenyl)acetamide]
25 | 0.14 | > 10 | N[C@H]1CCCC[C@@H]1C(=O)N1CCC(CC(=O)Nc2cc(C(F)(F)F)cc(C(F)(F)F)c2)CC1 [Compound 7, 2-(1-((1S,2S)-2-aminocyclohexanecarbonyl)piperidin-4-yl)-N-(3,5-bis(trifluoromethyl)phenyl)acetamide]
